Test results from ChEMBL document CHEMBL4041490, “Discovery of nanomolar ligands with novel scaffolds for the histamine H4 receptor by virtual screening” (Eur J Med Chem, 2017).

What was measured:
Histamine H4 receptor [1] = target: T1, Histamine H4 receptor (Homo sapiens, UniProt Q9H3N8); assay: Antagonist activity at human H4 receptor expressed in CHO cells co-expressing Galphai2 assessed as inhibition of imetit-induced GTPgamma[35S] binding at 1 uM after 30 mins by microbeta scintillation counting method relative to control; format: cell-based
T1 sequence (Q9H3N8 whole entry): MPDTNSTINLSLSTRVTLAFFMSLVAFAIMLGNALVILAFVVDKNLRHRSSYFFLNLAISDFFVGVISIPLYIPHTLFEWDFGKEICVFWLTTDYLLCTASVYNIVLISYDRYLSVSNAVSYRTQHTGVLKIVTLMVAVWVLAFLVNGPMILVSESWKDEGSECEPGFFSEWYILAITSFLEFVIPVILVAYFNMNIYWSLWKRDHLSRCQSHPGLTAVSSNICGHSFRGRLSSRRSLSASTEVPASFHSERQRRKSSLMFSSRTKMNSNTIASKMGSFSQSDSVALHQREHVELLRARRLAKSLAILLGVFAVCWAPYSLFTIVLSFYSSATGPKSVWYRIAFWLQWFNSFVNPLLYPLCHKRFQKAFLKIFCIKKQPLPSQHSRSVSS

Histamine H4 receptor [2] = target: T1, Histamine H4 receptor; assay: Antagonist activity at human H4 receptor expressed in CHO cells co-expressing Galphai2 assessed as inhibition of imetit-induced GTPgamma[35S] binding after 30 mins by microbeta scintillation counting method; format: cell-based
Histamine H4 receptor [3] = target: T1, Histamine H4 receptor; assay: Antagonist activity at H4 receptor in human SH-SY5Y cells assessed as inhibition of imetit-induced GTPgamma[35S] binding after 30 mins by microbeta scintillation counting method; format: cell-based
Histamine H4 receptor [4] = target: T1, Histamine H4 receptor; assay: Antagonist activity at H4 receptor in human SH-SY5Y cells assessed as inhibition of imetit-induced GTPgamma[35S] binding at 1 uM after 30 mins by microbeta scintillation counting method relative to control; format: cell-based
Histamine H3 receptor = Histamine H3 receptor (Homo sapiens, UniProt Q9Y5N1); assay: Antagonist activity at H3 receptor (unknown origin)
Histamine H3 receptor, sequence (Q9Y5N1 whole entry): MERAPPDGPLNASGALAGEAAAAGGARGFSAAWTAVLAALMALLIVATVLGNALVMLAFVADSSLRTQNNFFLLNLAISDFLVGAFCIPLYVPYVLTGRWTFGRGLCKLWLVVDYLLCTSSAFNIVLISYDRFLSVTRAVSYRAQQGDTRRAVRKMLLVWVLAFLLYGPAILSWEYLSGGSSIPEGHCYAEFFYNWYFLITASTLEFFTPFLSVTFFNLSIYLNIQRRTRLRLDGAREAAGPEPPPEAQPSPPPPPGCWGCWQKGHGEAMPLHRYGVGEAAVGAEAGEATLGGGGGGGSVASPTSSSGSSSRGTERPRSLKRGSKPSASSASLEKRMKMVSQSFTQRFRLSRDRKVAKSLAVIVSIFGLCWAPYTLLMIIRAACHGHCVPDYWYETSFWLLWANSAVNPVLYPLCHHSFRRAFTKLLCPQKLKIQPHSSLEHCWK

Histamine H4 receptor [5] = target: T1, Histamine H4 receptor; assay: Agonist activity at human H4 receptor expressed in CHO cell membranes co-expressing Galphai2 by GTPgamma[35S] binding assay
Histamine H4 receptor [6] = target: T1, Histamine H4 receptor; assay: Agonist activity at human H4 receptor expressed in CHO cell membranes co-expressing Galphai2 at 1 uM by GTPgamma[35S] binding assay
[7] = target: Voltage-gated inwardly rectifying potassium channel KCNH2 (Homo sapiens, UniProt Q12809); assay: Inhibition of human ERG
Voltage-gated inwardly rectifying potassium channel KCNH2, sequence (Q12809 whole entry): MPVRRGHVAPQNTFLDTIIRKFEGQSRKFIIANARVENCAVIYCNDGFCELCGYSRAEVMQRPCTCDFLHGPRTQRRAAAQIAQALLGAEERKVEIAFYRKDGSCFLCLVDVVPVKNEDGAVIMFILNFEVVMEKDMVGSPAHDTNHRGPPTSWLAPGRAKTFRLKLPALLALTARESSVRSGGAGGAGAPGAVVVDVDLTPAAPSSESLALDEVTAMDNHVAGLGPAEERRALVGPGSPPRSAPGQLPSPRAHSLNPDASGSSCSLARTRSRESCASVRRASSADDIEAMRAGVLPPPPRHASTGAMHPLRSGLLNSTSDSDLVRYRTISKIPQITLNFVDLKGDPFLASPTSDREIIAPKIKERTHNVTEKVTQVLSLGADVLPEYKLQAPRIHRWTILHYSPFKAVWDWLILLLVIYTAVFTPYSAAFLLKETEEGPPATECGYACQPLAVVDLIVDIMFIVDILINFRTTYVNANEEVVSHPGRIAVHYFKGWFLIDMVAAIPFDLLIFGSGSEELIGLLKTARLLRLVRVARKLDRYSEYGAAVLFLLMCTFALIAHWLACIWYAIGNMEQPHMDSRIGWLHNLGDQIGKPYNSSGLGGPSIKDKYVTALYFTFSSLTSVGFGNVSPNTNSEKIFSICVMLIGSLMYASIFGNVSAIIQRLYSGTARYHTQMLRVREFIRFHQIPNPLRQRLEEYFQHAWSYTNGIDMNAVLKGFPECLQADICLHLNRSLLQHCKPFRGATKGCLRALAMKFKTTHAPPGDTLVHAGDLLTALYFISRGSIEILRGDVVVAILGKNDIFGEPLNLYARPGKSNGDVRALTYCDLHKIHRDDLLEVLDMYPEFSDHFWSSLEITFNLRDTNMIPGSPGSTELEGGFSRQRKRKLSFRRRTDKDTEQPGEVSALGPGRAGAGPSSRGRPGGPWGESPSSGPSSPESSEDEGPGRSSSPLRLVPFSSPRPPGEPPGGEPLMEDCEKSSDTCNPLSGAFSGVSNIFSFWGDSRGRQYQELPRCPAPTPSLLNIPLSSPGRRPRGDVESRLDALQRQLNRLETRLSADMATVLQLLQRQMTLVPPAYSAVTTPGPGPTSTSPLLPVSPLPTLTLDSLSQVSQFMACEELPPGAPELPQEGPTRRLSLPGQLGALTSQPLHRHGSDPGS

D(3) dopamine receptor = D(3) dopamine receptor (Homo sapiens, UniProt P35462); assay: Antagonist activity at D3 receptor (unknown origin)
D(3) dopamine receptor, sequence (P35462 whole entry): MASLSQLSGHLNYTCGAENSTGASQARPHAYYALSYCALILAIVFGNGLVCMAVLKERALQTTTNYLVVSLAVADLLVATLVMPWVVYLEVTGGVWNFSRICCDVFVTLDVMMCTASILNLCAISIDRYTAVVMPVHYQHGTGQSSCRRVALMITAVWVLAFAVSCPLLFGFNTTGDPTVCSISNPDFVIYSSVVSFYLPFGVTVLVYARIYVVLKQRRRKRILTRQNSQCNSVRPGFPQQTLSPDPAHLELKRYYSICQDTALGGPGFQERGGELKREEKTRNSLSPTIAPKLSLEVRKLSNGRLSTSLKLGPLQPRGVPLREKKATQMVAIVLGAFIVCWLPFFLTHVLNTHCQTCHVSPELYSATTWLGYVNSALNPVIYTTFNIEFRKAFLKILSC

Histamine H4 receptor [8] = target: T1, Histamine H4 receptor; assay: Antagonist activity at human H4 receptor assessed as inhibition of imetit-induced GTPgamma[35S] binding after 30 mins by microbeta scintillation counting method
Histamine H4 receptor [9] = target: T1, Histamine H4 receptor; assay: Antagonist activity at H4 receptor (unknown origin)

Compound	inhibition (Histamine H4 receptor [1]) [%]	Ki (Histamine H4 receptor [2]) [nM]	Ki (Histamine H4 receptor [3]) [nM]	inhibition (Histamine H4 receptor [4]) [%]	Ki (Histamine H3 receptor) [nM]	also measured
O=C(CCCc1ccc(I)cc1)OCCCc1c[nH]cn1	> 20					
CCOC(=O)CN1Cc2ccccc2C[C@@H](NC(=O)C(Cc2ccccc2)C(=O)NO)C1=O (some centres not stated)	> 20	3020				
O=C(CCNC(=O)C(Cc1ccccc1)Cn1ccnc1)OCc1ccccc1 (configuration not stated)			174	> 20		
O=C(c1ccccc1)c1ccc(OCCCCCN2CCCC2)cc1	> 20	13000				
CC(=O)c1ccc(OCc2ccc(CN3CCCC(C)C3)cc2)cc1 (configuration not stated)	> 20	16400			22	
CC(=O)SCC(Cc1ccc2c(c1)OCO2)C(=O)NCC(=O)OCc1ccccc1 (configuration not stated)	> 20	214				
COc1ccc(/C(=N/[C@H](C)Cc2cnc[nH]2)c2ccccc2)c(O)c1						EC50 (Histamine H4 receptor [5]): 6750 nM; Activity (Histamine H4 receptor [6]): > 20%
FC(F)(F)c1cccc(N2CCN(CCCCNc3nccc4ccccc34)CC2)c1			5.4	> 20		
Brc1ccc(C(OCCCc2c[nH]cn2)c2ccc3ccccc3c2)cc1 (configuration not stated)			4	> 20	47	
Clc1cccc(N2CCN(CCCCNc3nccc4ccccc34)CC2)c1Cl			5.2	> 20		Ki [7]: 30 nM
O=C(O)C(Cc1cccc2ccccc12)NC(=O)[C@@H](CS)Cc1ccccc1 (some centres not stated)			62	> 20		
c1ccc(C(OCCCc2c[nH]cn2)(c2ccccc2)c2ccccc2)cc1	> 20					
Clc1cccc(N2CCN(CCCCNc3ccc4ccccc4n3)CC2)c1Cl	> 20	125				Ki [7]: 10 nM
c1ccc(C(OCCCc2cnc[nH]2)(c2ccccc2)c2ccccc2)cc1		240			> 1000	
COc1cc2c(cc1OC)C(C)=C(C(=O)NCCCCN1CCN(c3ccccc3F)CC1)C2	> 20	3800				Ki (D(3) dopamine receptor): 0.5 nM
O=C(NC(c1ccc(Cl)cc1)c1ccc(Cl)cc1)OCCCc1c[nH]cn1			14.5	> 20	258	

Compound	inhibition (Histamine H4 receptor [1]) [%]	Ki (Histamine H4 receptor [2]) [nM]	Ki (Histamine H4 receptor [3]) [nM]	inhibition (Histamine H4 receptor [4]) [%]	Ki (Histamine H3 receptor) [nM]	also measured
CC(C)(CN=C(c1ccccc1O)c1ccccc1O)c1c[nH]cn1			19	> 20		
O=C(/C=C/c1ccccc1)c1ccc(OCCCc2c[nH]cn2)cc1			11	> 20	8.3	
c1ccc(C(OCCCc2c[nH]cn2)c2ccccc2)cc1			25	> 20	24	Ki [7]: 500 nM
Nc1ccc(NCCc2ccc(OCCCN3CCCCC3)cc2)nc1	> 20	30000			4.8	
O=C(CCCc1ccc(I)cc1)OCCCc1cnc[nH]1		118			41	
O=C(NCCCCN1CCN(c2cccc(Cl)c2Cl)CC1)c1cncc(Br)c1						Ki (D(3) dopamine receptor): 2.8 nM; Ki (Histamine H4 receptor [8]): 3100 nM
COc1ccc2c(c1)c(CC(=O)NCCCn1ccnc1)c(C)n2C(=O)c1ccc(Cl)cc1	> 20	4200				
c1ccc(-c2ccc(CCCOCCCc3c[nH]cn3)cc2)cc1			27	> 20	118	
O=c1[nH]c2ccccc2n1C1CCN(CCCC(c2ccc(F)cc2)c2ccc(F)cc2)CC1 [PIMOZIDE]						Ki (Histamine H4 receptor [9]): 2000 nM
Ic1ccc(C(OCCCc2c[nH]cn2)c2ccccc2)cc1 (configuration not stated)			3	> 20	14	
O=[N+]([O-])c1cccc(C(OCCCc2c[nH]cn2)c2ccccc2)c1 (configuration not stated)			2.7	> 20	9.6	
O=C(Nc1cccc2ccccc12)N1CCC(c2c[nH]cn2)CC1	> 20	1090				
O=C(NCCCCN1Cc2cccc3cccc(c23)C1)c1ccc2ccccc2c1			400	> 20		
COc1ccccc1N1CCN(CCCCNc2nccc3ccccc23)CC1			51	> 20		
COc1ccc2c(c1)c(CC(=O)NCCCO)c(C)n2C(=O)c1ccc(Cl)cc1						EC50 (Histamine H4 receptor [5]): 7780 nM; Activity (Histamine H4 receptor [6]): > 20%
